Results from US20260109699A1, “AZOLE DERIVATIVES AS SHP2 INHIBITORS” (IRBM S.P.A., priority 2022, published 2026).

Key:
[1] = Determination of brain penetration in SD rats; format: in vivo; settings: Sprague-Dawley (SD), rat; male SD rats, IV 0.2 mg/kg, unbound brain to plasma ratio at 8 h; read-out: Kpuu, brain
Experimental: Total brain levels, expressed as brain/plasma ratio (Kp,brain) were measured by Cbrain@8h/Cplasma@8h in SD rats after IV administration (see Pharmaceutical Research, Vol. 25, No. 8, August 2008 DOI: 10.1007/s11095-007-9502-2; Pharmaceutical Research (2022) 39:1321-1341 https://doi.org/10.1007/s11095-022-03246-6). Unbound fraction of each molecule in biological matrix was determined by in vitro plasma and brain binding assay. Kpuu, brain was calculated by the following equation: […]
In vitro plasma and brain binding assay was carried out on a RED (Rapid Equilibrium Dialysis) device. Unbound fraction (fu) of each molecule in the brain homogenate and plasma were calculated by the ratio of the buffer side response to the brain homogenate/plasma side response. An IV study design was used as the in vivo screening model to identify brain penetration of each molecule. Male naïve SD rats (n=3) were intravenously dosed with each molecule at 0.2 mg/kg in DMSO/Propylene Glycol/Water, 20:60:20 (v/v/v). At 0.083, 0.25, 0.5, 1, 2, 4, and 8 h post-dose plasma samples were collected via tail vein and brain tissue was harvested at the 8 h time point and homogenized in 3× volume of water. All samples were stored at ˜−80° C. prior to LC/MS/MS analysis. At the 8 h time point, the unbound brain to plasma ratios were generated to identify molecules with Kpuu, brain values>0.3 which is indicative of good passive brain penetration.

[2] = biological target: T1, SHP-2 enzyme (Met1-Leu525), SHP2wt (Homo sapiens, UniProt Q06124); assay: SHP2 inhibition enzymatic assay; format: biochemical; settings: 0.5 nM SHP-2 activated by 500 nM IRS1 peptide, 75 μM DiFMUP substrate
T1 construct: synthetized by Origene, Met1-Leu525, cat #TP750155; purchased Origene TP750155
T1 sequence (Q06124 1-525): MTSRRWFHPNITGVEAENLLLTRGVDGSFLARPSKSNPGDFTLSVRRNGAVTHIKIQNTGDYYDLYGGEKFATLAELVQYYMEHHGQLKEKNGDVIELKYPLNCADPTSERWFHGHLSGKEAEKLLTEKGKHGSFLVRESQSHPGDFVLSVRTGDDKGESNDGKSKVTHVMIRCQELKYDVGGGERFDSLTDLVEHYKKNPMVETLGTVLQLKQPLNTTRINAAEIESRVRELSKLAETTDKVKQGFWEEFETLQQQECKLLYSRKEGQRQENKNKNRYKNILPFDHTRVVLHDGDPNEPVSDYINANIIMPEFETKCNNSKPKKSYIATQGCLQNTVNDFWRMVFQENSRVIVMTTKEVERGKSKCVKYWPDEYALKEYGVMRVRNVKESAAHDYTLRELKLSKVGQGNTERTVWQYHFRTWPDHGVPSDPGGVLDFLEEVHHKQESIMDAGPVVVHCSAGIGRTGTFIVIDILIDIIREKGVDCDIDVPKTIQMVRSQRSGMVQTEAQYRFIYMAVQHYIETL
Method in brief: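 Human SHP2 (Met1-Leu525, 0.5 nM) activated by 500 nM bis-phosphorylated IRS1 peptide, pre-incubated 30 min with compound, then 75 μM DiFMUP for 30 min at rt in HEPES pH 7.2, NaCl/KCl, EDTA, Tween-20, 5 mM DTT. Reaction quenched with bpV, fluorescence read; IC50 by four-parameter logistic fit.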

[3] = system: phospho-ERK1/2 (Thr202/Tyr204); assay: Phospho-ERK cellular assay; format: cell-based; settings: Homo sapiens; KYSE-520 cells, 2 h at 37° C, TR-FRET; read-out: pERK IC50
Method in brief: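 KYSE-520 cells treated overnight-after-plating with serially diluted compounds for 2 h at 37° C, then lysed. Phospho-ERK1/2 measured by TR-FRET after overnight antibody incubation at rt; inhibition normalized between DMSO (0%) and no-cell (100%) wells, IC50 from four-parameter logistic fit.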

[4] = biological target: T2, recombinant SHP2 protein (AviTag-G4SG4S-SHP2(1-525)) (Homo sapiens, UniProt Q06124); assay: Binding kinetic assay by surface plasmon resonance (SPR); settings: for Residence time 1/koff SPR: 1/koff from SPR; for koff: Biacore T200, single cycle kinetic, 25° C, 1:1 Langmuir model
T2 construct: recombinant SHP2 protein (AviTag-G4SG4S-SHP2(1-525)); purchased VIVA Biotech Ltd (custom production)
T2 sequence (Q06124 1-525): T1 sequence (Q06124 1-525)
Experimental: A N-term biotinylated recombinant SHP2 protein (AviTag-G4SG4S-SHP2(1-525)) was custom produced by VIVA Biotech Ltd. Binding kinetic rate constants were measured by SPR, using a Biacore T200 instrument. The recombinant SHP2 protein was diluted at […] in HBS-P+ buffer, then captured on a series S streptavidin sensor chip up to 5000 RU. Binding of compounds was assessed by a single cycle kinetic procedure (SCK): compounds were diluted in HBS-EP+ supplemented with 20% DMSO (from 300 to 3.7 nM, 3 fold dilution), injected for 120 s over the ligand, then dissociation rate measured for 3600 s, at […] and 25° C. Sensorgrams were analysed by Biacore T200 evaluation software: binding rate constants (kon, koff) and affinity (KD) were calculated by curve filling according to a 1:1 Langmuir model. Each molecule was tested in triplicate on separate flow channels.

Kp uu at 8 h [1]	IC50 [2]	IC50 [3]	Residence time 1/koff SPR [4]	koff [4]	Compound
> 0.3	≤ 50 nM	< 100 nM	3417 s	0.000293 s⁻¹	N[C@@H]1c2ccnn2CC12CCN(c1cnc(Sc3cccc(-n4ccnc4)c3Cl)cn1)CC2 [Example 44, (S)-1-(5-((2-chloro-3-(1H-imidazol-1-yl)phenyl)thio)pyrazin-2-yl)-4′H,6′H-spiro[piperidine-4,5′-pyrrolo[1,2-b]pyrazol]-4′-amine]
> 0.3	≤ 50 nM	< 100 nM	11001 s	9.09e-05 s⁻¹	N[C@@H]1c2ccnn2CC12CCN(c1cnc(Sc3ccccc3F)cn1)CC2 [Example 21, (S)-1-(5-((2-fluorophenyl)thio)pyrazin-2-yl)-4′H,6′H-spiro[piperidine-4,5′-pyrrolo[1,2-b]pyrazol]-4′-amine]
> 0.3	≤ 50 nM	< 100 nM	5474 s	0.000183 s⁻¹	N[C@@H]1c2ccnn2CC12CCN(c1cnc(Sc3ccnc4ccccc34)cn1)CC2 [Example 39, (S)-1-(5-(quinolin-4-ylthio)pyrazin-2-yl)-4′H,6′H-spiro[piperidine-4,5′-pyrrolo[1,2-b]pyrazol]-4′-amine]
> 0.3	≤ 50 nM	< 100 nM	90909 s	1.1e-05 s⁻¹	N[C@@H]1c2ccnn2CC12CCN(c1cnc(Sc3cccc(-n4cccn4)c3Cl)cn1)CC2 [Example 10, (S)-1-(5-((2-chloro-3-(1H-pyrazol-1-yl)phenyl)thio)pyrazin-2-yl)-4′H,6′H-spiro[piperidine-4,5′-pyrrolo[1,2-b]pyrazol]-4′-amine]
